Data from patent publication US20210015134A1, “CONSUMABLES” (Givaudan S.A., priority 2006, published 2021).

Key:
Assay type in all cases: in vivo
[1] = tested on: sweet sensitive panelists; experiment: Ranking test, sweetness isointensity of enhancer in sweetener solution (Example 3a)
Method: Ranking Tests to Determine the Sweetness Isointensity of Sweetness Enhancers to Sucrose Solutions
For comparative ranking, samples of 0.5%, 1%, 1.5%, 7%, 8%, 9%, 10% and 11% sucrose solutions were prepared.
3a) Sweetness Isointensity of Sweetness Enhancer in Sucrose Solutions
The sensory evaluation was conducted using a ranking method. Samples at ambient temperature were randomly presented in 15 ml blind aliquots (unidentifiable by panelists). Panels consisted of 10 sweet sensitive subjects and samples were presented in 4 replications over 2 sessions. After tasting each sample, the mouth was rinsed thoroughly with water at ambient temperature prior to tasting the next sample. Panelists were presented with 7%, 8%, 9%, 10%, 11% sucrose samples and a sixth sample of 7% sucrose with a sweetness enhancer in a concentration near its sweetness detection threshold. They were asked to rank the samples from low to high with respect to perceived sweet taste. R-indices were calculated for 7% sucrose with the sweetness enhancer versus 7%, 8%, 9%, 10% or 11% sucrose.

[2] = tested on: sweet sensitive panelists; experiment: Paired comparison of sweetness enhancers in water versus sucrose (Example 4, modified)
Method: Paired Comparisons of Sweetness Enhancers and Mixtures Thereof in Water and 7% Sucrose
Samples of sweetness enhancers were prepared in water or 7% sucrose. One, two or three sweetness enhancers were used in a sample. All samples were presented to panelists at ambient temperature. The sensory evaluation was conducted using a paired comparison method. […] Samples were paired randomly and presented in unidentifiable pairs of two (left and right) to the panelists in random order. The sample on the left was tasted first, followed by rinsing the mouth with water, then tasting the sample on the right. Once completing the sequence, each panelist ranked the pair of samples for sweetness then evaluated samples with respect to one another with the following descriptors (in ascending order): […]

[3] = tested on: sweet sensitive panelists; experiment: Ranking test, near threshold sweetness isointensity of enhancer in water (Example 3b)
Method: The sensory evaluation was conducted using a ranking method. Samples at ambient temperature were randomly presented in 15 ml blind aliquots (unidentifiable by panelists). […] After tasting each sample, the mouth was rinsed thoroughly with water at ambient temperature prior to tasting the next sample. […] They were asked to rank the samples from low to high with respect to perceived sweet taste.

[4] = tested on: sweet sensitive panelists; experiment: Comparative sensory evaluation of sweetness enhancers in sweetener solution or water (Example 1)
Method: Comparative sensory evaluation of sweetness enhancers in 2 or 7% sucrose
The test samples contained the potential sweetness enhancers in 0% sucrose (water), 2% sucrose, or 7% sucrose, and control samples of 0%, 2% and 7% sucrose without any additive. The sensory evaluations were conducted as follows. All samples were presented at ambient temperature in 15 ml aliquots to panels consisting of 5-9 sweet sensitive subjects of varying sweet sensitivity. After tasting each sample, the mouth was rinsed thoroughly with water at ambient temperature prior to tasting the next sample. The sucrose positive control (2% or 7%) was presented first and served as the sweetness reference to which all sweetness enhancer/sucrose combinations were directly compared.
One tasting sequence included tasting the sucrose control first, rinsing with water, tasting the sweetness enhancer/sucrose sample, rinsing with water followed by tasting the sucrose control again. Once the sequence was completed, each panelist chose the sample which was sweeter and evaluated the sweetness of each sample relative to one another.
In a second tasting sequence, this same procedure was followed for the water negative control versus the sweetness enhancer/water samples to determine the sweet taste due to the sweetness enhancer itself at each tested concentration.
Panelists evaluated the sweetness of the sweetness enhancer in water for each concentration. For their evaluation, panelists were allowed to compare any perceived sweetness of the sweetness enhancer to the 2% or 7% sucrose control to determine the relative intensity of sweetness. Mild sweet taste corresponds to the taste of 2% sucrose, strong sweet taste corresponds to the taste of 7% sucrose.
Alternatively to sucrose, the evaluation may be performed with another sweetener, for example, high fructose (55%) corn syrup (HFCS, containing 55% fructose and 45% glucose), erythritol, sucralose, aspartame, or acesulfame potassium (AceK).

[5] = tested on: sweet sensitive subjects; experiment: Sweetness quality evaluation (time of onset, localization, duration)
Method: (§1) Rebaudioside A (99%+, purified from plant extract, Sweet Aloha Farms, LLC) (1 ppm, 10 ppm, 20 ppm, 30 ppm) in 2% sucrose samples was evaluated for the qualities of the sweetness of the samples (time of onset, localization, duration). The sensory evaluations were conducted as follows. All samples were presented at ambient temperature in 15 ml aliquots and presented blindly to sweet sensitive subjects of varying sweet sensitivity. Subjects tasted the samples and were asked to evaluate the quality of sweetness. Sucrose solutions (2% and 7%) were presented as references.
Rebaudioside A (99%+, purified from plant extract, Sweet Aloha Farms, LLC) (1 ppm, 10 ppm, 20 ppm, 30 ppm) in 7% sucrose samples were evaluated for the qualities of the sweetness of the samples (time of onset, localization, duration). The sensory evaluations were conducted as follows. All samples were presented at ambient temperature in 15 ml aliquots and presented blindly to sweet sensitive subjects of varying sweet sensitivity. Subjects tasted the samples and were asked to evaluate the quality of the sweetness. Sucrose solutions (2% and 7%) were presented as references to evaluate the sweetness of the rebaudioside A samples.
as §1, with “Stevioside extract (95%+,” for “Rebaudioside A (99%+,”, “Apin Chemicals) (20” for “Sweet Aloha Farms, LLC) (1 ppm, 10 ppm, 20”, “30 ppm, 40 ppm, 50” for “30”, “ppm) was evaluated” for “ppm)”, “sucrose” for “sucrose samples was evaluated”, “sweetness qualities.” for “quality of sweetness.”
Stevioside (20 ppm, 30 ppm, 40 ppm, 50 ppm) was evaluated in 7% sucrose for the qualities of the sweetness of the samples (time of onset, localization, duration). The sensory evaluations were conducted as follows. All samples were presented at ambient temperature in 15 ml aliquots and presented blindly to sweet sensitive subjects of varying sweet sensitivity. Subjects tasted the samples and were asked to evaluate the sweetness qualities. Sucrose solutions (2% and 7%) were presented as references to evaluate the sweetness of the stevioside samples.

[6] = 45 ppm in water vs 0.5% sucrose
[7] = 50 ppm in water vs 0.5% sucrose
[8] = 60 ppm in water vs 1.5% sucrose

## C[C@@H]1O[C@@H](OC2C(Oc3cc(O)c(C(=O)CCc4ccc(O)cc4)c(O)c3)OC(CO)C(O)C2O)[C@H](O)[C@H](O)[C@H]1O (stereo in doubt) [NarDHC, -[4-[[2-O-(6-Deoxy-L-mannopyranosyl)-D-glucopyranosyl]oxy]-2,6-dihydroxyphenyl]-3-(4-hydroxyphenyl)-1-propanone]
[1]; 45 ppm in 7% sucrose
  added sucrose sweetness intensity: 1 ° Brix
  sweetness isointensity to sucrose: 8 % sucrose
[1]; 45 ppm in 7% sucrose vs 7% sucrose
  NarDHC sample sweetness: sweeter
[1]; 45 ppm in 7% sucrose vs 8% sucrose
  NarDHC sample sweetness: isosweet
[1]; 45 ppm in 7% sucrose vs 9% sucrose
  NarDHC sample sweetness: less sweet
[1]; 45 ppm in 7% sucrose vs 10% sucrose
  NarDHC sample sweetness: less sweet
[1]; 45 ppm in 7% sucrose vs 11% sucrose
  NarDHC sample sweetness: less sweet
[1]; 60 ppm in 7% sucrose
  added sucrose sweetness intensity: 2 ° Brix
  sweetness isointensity to sucrose: 9 % sucrose
[1]; 60 ppm in 7% sucrose vs 7% sucrose
  NarDHC sample sweetness: Sweeter
[1]; 60 ppm in 7% sucrose vs 8% sucrose
  NarDHC sample sweetness: Sweeter
[1]; 60 ppm in 7% sucrose vs 9% sucrose
  NarDHC sample sweetness: Isosweet
[1]; 60 ppm in 7% sucrose vs 10% sucrose
  NarDHC sample sweetness: less sweet
[1]; 60 ppm in 7% sucrose vs 11% sucrose
  NarDHC sample sweetness: less sweet
[2]; 45 ppm in water vs 0% sucrose
  Result of comparison: weakly sweeter
[2]; [6]
  Result of comparison: isosweet
[2]; 45 ppm in water vs 1% sucrose
  Result of comparison: less sweet
[2]; [7]
  Result of comparison: notably sweeter
[2]; 50 ppm in water vs 1% sucrose
  Result of comparison: less sweet
[2]; 55 ppm in water
  isointensity to sucrose solution: 1 % sucrose
[2]; 55 ppm in water vs 0.5% sucrose
  Result of comparison: notably sweeter
[2]; 55 ppm in water vs 1% sucrose
  Result of comparison: isosweet
[2]; 60 ppm in water vs 1% sucrose
  Result of comparison: notably sweeter
[2]; [8]
  Result of comparison: significantly less sweet
[3]; 45 ppm in water
  isointensity to sucrose solution: 0.5 % sucrose
[3]; [6]
  sample sweetness (NarDHC, 45 ppm): Isosweet
[3]; 45 ppm in water vs 1% sucrose
  sample sweetness (NarDHC, 45 ppm): less sweet
[3]; 60 ppm in water vs 0.5% sucrose
  sample sweetness (NarDHC, 60 ppm): sweeter
[3]; 60 ppm in water vs 1% sucrose
  sample sweetness (NarDHC, 60 ppm): sweeter
[3]; [8]
  sample sweetness (NarDHC, 60 ppm): less sweet
[4]; 20 ppm in 2% sucrose
  Sensory evaluation of sweetness intensity: notably sweeter than sucrose control
[4]; 20 ppm in water
  Sensory evaluation of sweetness intensity: barely perceived delayed sweetness vs. 2% sucrose
[4]; 60 ppm in 2% sucrose
  Sensory evaluation of sweetness intensity: much sweeter than sucrose control
[4]; 60 ppm in water
  Sensory evaluation of sweetness intensity: very weak delayed sweetness far below 2% sucrose
[4]; 100 ppm in 2% sucrose
  Sensory evaluation of sweetness intensity: substantially sweeter than 2% sucrose control
[4]; 100 ppm in water
  Sensory evaluation of sweetness intensity: mild sweetness slightly below 2% sucrose control

## C=C1C[C@@]23CC[C@H]4[C@@](C)(CCC[C@@]4(C)C(=O)O[C@@H]4O[C@H](CO)[C@@H](O)[C@H](O)[C@H]4O)[C@@H]2CC[C@]1(O[C@@H]1O[C@H](CO)[C@@H](O)[C@H](O)[C@H]1O[C@@H]1O[C@H](CO)[C@@H](O)[C@H](O)[C@H]1O)C3 [Stevioside]
[5]; 20 ppm in 2% sucrose
  Sensory evaluation of sweetness intensity (onset, localisation, duration): immediate onset, full mouth sweet, not lingering
[5]; 20 ppm in 7% sucrose
  Sensory evaluation of sweetness intensity (onset, localisation, duration): immediate onset, full mouth sweet, not lingering
[5]; 30 ppm in 2% sucrose
  Sensory evaluation of sweetness intensity (onset, localisation, duration): immediate onset, full mouth sweet, not lingering
[5]; 30 ppm in 7% sucrose
  Sensory evaluation of sweetness intensity (onset, localisation, duration): immediate onset, full mouth sweet, not lingering
[5]; 40 ppm in 2% sucrose
  Sensory evaluation of sweetness intensity (onset, localisation, duration): immediate onset, full mouth sweet, not lingering
[5]; 40 ppm in 7% sucrose
  Sensory evaluation of sweetness intensity (onset, localisation, duration): immediate onset, full mouth sweet, not lingering
[2]; 20 ppm in water vs 0% sucrose
  Result of comparison: weakly sweeter
[2]; 20 ppm in water vs 0.5% sucrose
  Result of comparison: notably less sweet
[2]; 30 ppm in water
  isointensity to sucrose solution: 0.5 % sucrose
[2]; 30 ppm in water vs 0% sucrose
  Result of comparison: weakly sweeter
[2]; 30 ppm in water vs 0.5% sucrose
  Result of comparison: isosweet
[2]; 30 ppm in water vs 1% sucrose
  Result of comparison: significantly less sweet
[2]; 40 ppm in water vs 0.5% sucrose
  Result of comparison: notably sweeter
[2]; 40 ppm in water vs 1% sucrose
  Result of comparison: less sweet
[2]; 40 ppm in water, by interpolation
  isointensity to sucrose solution: 0.75 % sucrose
[2]; 50 ppm in water
  isointensity to sucrose solution: 1 % sucrose
[2]; [7]
  Result of comparison: sweeter
[2]; 50 ppm in water vs 1% sucrose
  Result of comparison: isosweet
[2]; 50 ppm in water vs 1.5% sucrose
  Result of comparison: significantly less sweet
[2]; 60 ppm in water vs 1% sucrose
  Result of comparison: notably sweeter
[2]; [8]
  Result of comparison: less sweet
[2]; 60 ppm in water, by interpolation
  isointensity to sucrose solution: 1.25 % sucrose
[4]; 20 ppm in 2% sucrose
  Sensory evaluation of sweetness intensity: notably sweeter than sucrose control
[4]; 20 ppm in 7% sucrose
  Sensory evaluation of sweetness intensity: notably sweeter than sucrose control
[4]; 20 ppm in water (Example 9A)
  Sensory evaluation of sweetness intensity: barely detectable sweetness
[4]; 20 ppm in water (Example 9B)
  Sensory evaluation of sweetness intensity: barely detectable sweetness
[4]; 30 ppm in 2% sucrose
  Sensory evaluation of sweetness intensity: much sweeter than sucrose control
[4]; 30 ppm in 7% sucrose
  Sensory evaluation of sweetness intensity: notably sweeter than sucrose control
[4]; 30 ppm in water (Example 9A)
  Sensory evaluation of sweetness intensity: very weak, late onsetting sweetness
[4]; 30 ppm in water (Example 9B)
  Sensory evaluation of sweetness intensity: very weak, late onsetting sweetness
[4]; 40 ppm in 2% sucrose
  Sensory evaluation of sweetness intensity: much sweeter than sucrose control
[4]; 40 ppm in 7% sucrose
  Sensory evaluation of sweetness intensity: much sweeter than sucrose control
[4]; 40 ppm in water (Example 9A)
  Sensory evaluation of sweetness intensity: weak late onsetting sweetness
[4]; 40 ppm in water (Example 9B)
  Sensory evaluation of sweetness intensity: weak sweetness, late onsetting sweetness
[4]; 50 ppm in 2% sucrose
  Sensory evaluation of sweetness intensity: much sweeter than sucrose control
[4]; 50 ppm in 7% sucrose
  Sensory evaluation of sweetness intensity: much sweeter than sucrose control
[4]; 50 ppm in water (Example 9A)
  Sensory evaluation of sweetness intensity: weak sweetness, faster onset than 40 ppm,
[4]; 50 ppm in water (Example 9B)
  Sensory evaluation of sweetness intensity: weak sweetness, faster onset than 40 ppm,
[4]; 60 ppm in 2% sucrose
  Sensory evaluation of sweetness intensity: substantially sweeter than sucrose control
[4]; 60 ppm in 7% sucrose
  Sensory evaluation of sweetness intensity: substantially sweeter than sucrose control
[4]; 60 ppm in water (Example 9A)
  Sensory evaluation of sweetness intensity: weak sweetness, faster onset than 50 ppm,
[4]; 60 ppm in water (Example 9B)
  Sensory evaluation of sweetness intensity: weak sweetness, faster onset than 50 ppm,
